Residues, ends and D or L forms follow the SMILES beside them.
Key:
macrophages [1] = experiment: Inhibition of macrophage activity (general); assay type: cell-based; details: for propriétés au terme des mêmes tests: same tests as for the tripeptide
Description: (§1) Selon des tests effectués par les méthodes décrites dans l'article cité plus haut de "Immunology Letters", la L'thréonyl-L-lysyl-L-proline s'est révélée atoxique pour les cellules et inhibitrice non seulement de la libération, mais également de la synthèse de la β-glucuronidase lysosomiale. En présence du peptide, le taux intracellulaire de cette enzyme décroît également. La L-thréonyl-L-lysyl-L-proline inhibe également la stimulation des macrophages de patients allergiques par l'allergène correspondant, lorsqu'ils ont été préincubés en présence du peptide. Cette dépression est très significative (50 à 70%) dans des essais in vitro. La thréonyl-L-lysyl-L-proline présente un pouvoir inhibiteur d'environ 60% aux concentrations de 200 nanogrammes à 20 picogrammes, ce pouvoir inhibiteur étant même de 50% à 2 picogrammes. Cette inhibition par le peptide se manifeste aussi dans des essais d'activation de macrophages par des réactions (IgE)-(Anti-IgE), que ces macrophages aient été incubés auparavant in vitro en présence du peptide, ou obtenus à partir d'animaux auxquels le peptide avait antérieurement été administré par voie intraveineuse (chez le rat, à des doses de 10 µg, trois heures avant le prélèvement des cellules). La libération d'anion superoxyde par les macrophages de rats est également inhibée par le tripeptide en question. […] Le peptide administré au rat induit également une inhibition de l'anaphylaxie cutanée passive provoquée chez l'animal par les administrations successives d'un antigène et de l'antisérum correspondant.

macrophages [2] = details: macrophages challenged simultaneously by an antigen and the peptide; cited from earlier work
mastocytes = experiment: Mast cell degranulation in vitro; assay type: cell-based, rats; details: pre-incubated with peptide; stimulants polymyxine or phytohémagglutinine
[3] = system: β-glucuronidase lysosomiale; experiment: Release and synthesis of lysosomal β-glucuronidase by macrophages; assay type: cell-based
Description: as §1

[4] = system: macrophages de patients allergiques; experiment: Stimulation of macrophages of allergic patients by the corresponding allergen, in vitro; assay type: cell-based
Description: D'autre part, les macrophages alvéolaires de sujets allergiques stimulés par l'allergène correspondant sont également inhibés de manière significative (50 à 60%) s'ils ont été péalablement incubés avec des produits de l'hydrolyse des IgG par les protéases parasitaires.
Selon des tests effectués par les méthodes décrites dans l'article cité plus haut de "Immunology Letters", la L'thréonyl-L-lysyl-L-proline s'est révélée atoxique pour les cellules et inhibitrice non seulement de la libération, mais également de la synthèse de la β-glucuronidase lysosomiale. En présence du peptide, le taux intracellulaire de cette enzyme décroît également. La L-thréonyl-L-lysyl-L-proline inhibe également la stimulation des macrophages de patients allergiques par l'allergène correspondant, lorsqu'ils ont été préincubés en présence du peptide. Cette dépression est très significative (50 à 70%) dans des essais in vitro. La thréonyl-L-lysyl-L-proline présente un pouvoir inhibiteur d'environ 60% aux concentrations de 200 nanogrammes à 20 picogrammes, ce pouvoir inhibiteur étant même de 50% à 2 picogrammes. […]

macrophages [5] = experiment: Macrophage activation by (IgE)-(Anti-IgE) reactions, macrophages from animals given the peptide intravenously; assay type: in vivo; details: rat, intravenous, 10 µg, three hours before cell collection
Description: (§2) Selon des tests effectués par les méthodes décrites dans l'article cité plus haut de "Immunology Letters", la L'thréonyl-L-lysyl-L-proline s'est révélée atoxique pour les cellules et inhibitrice non seulement de la libération, mais également de la synthèse de la β-glucuronidase lysosomiale. En présence du peptide, le taux intracellulaire de cette enzyme décroît également. La L-thréonyl-L-lysyl-L-proline inhibe également la stimulation des macrophages de patients allergiques par l'allergène correspondant, lorsqu'ils ont été préincubés en présence du peptide. Cette dépression est très significative (50 à 70%) dans des essais in vitro. La thréonyl-L-lysyl-L-proline présente un pouvoir inhibiteur d'environ 60% aux concentrations de 200 nanogrammes à 20 picogrammes, ce pouvoir inhibiteur étant même de 50% à 2 picogrammes. Cette inhibition par le peptide se manifeste aussi dans des essais d'activation de macrophages par des réactions (IgE)-(Anti-IgE), que ces macrophages aient été incubés auparavant in vitro en présence du peptide, ou obtenus à partir d'animaux auxquels le peptide avait antérieurement été administré par voie intraveineuse (chez le rat, à des doses de 10 µg, trois heures avant le prélèvement des cellules). La libération d'anion superoxyde par les macrophages de rats est également inhibée par le tripeptide en question. […]

[6] = system: anaphylaxie cutanée passive; experiment: Passive cutaneous anaphylaxis; assay type: in vivo; details: rat; provoked by successive administration of antigen and corresponding antiserum
Description: as §2

cellules = experiment: Toxicity for the cells; assay type: cell-based; details: methods of the cited Immunology Letters article
Description: as §2

macrophages [7] = experiment: Macrophage activation by (IgE)-(Anti-IgE) reactions, macrophages pre-incubated in vitro with the peptide; assay type: cell-based; details: macrophages incubated beforehand in vitro with the peptide
Description: as §2

macrophages de rats = experiment: Superoxide anion release by macrophages; assay type: cell-based
Description: as §2

In the case of `N=C(N)NCCC[C@H](NC(=O)[C@@H]1CCCN1C(=O)[C@@H](N)CCCCN)C(=O)O` [L-lysyl-L-prolyl-L-arginine, reference compound] (H-Lys-Pro-Arg-OH), the “activité à l'égard de l'activité des macrophages” value (macrophages [1]) is reported as “n'est pas active”.
For `C[C@@H](O)[C@H](N)C(=O)N[C@@H](CCCCN)C(=O)N1CCC[C@H]1C(=O)O` [L-thréonyl-L-lysyl-L-proline] (H-Thr-Lys-Pro-OH), the “activité à l'égard de l'activité des macrophages” value (macrophages [1]) is given as “activité inhibitrice semblable”, the “propriété d'activer les macrophages” value (macrophages [2]) is given as “abolition” and the dégranulation des mastocytes (mastocytes) is given as “inhibition sensible”. The “libération de la β-glucuronidase lysosomiale” value [3] was “inhibitrice”, the “synthèse de la β-glucuronidase lysosomiale” value [3] was “inhibitrice” and the “taux intracellulaire de cette enzyme” value ([3]; β-glucuronidase, in presence of the peptide) was “décroît”. For the same compound, the pouvoir inhibiteur ([4]; 2 picogrammes) was 50%, the pouvoir inhibiteur ([4]; concentrations de 200 nanogrammes à 20 picogrammes) was roughly 60% and the “inhibition de l'activation de macrophages par des réactions (IgE)-(Anti-IgE)” value (macrophages [5]) was “inhibition”. For the same compound, the “inhibition de l'anaphylaxie cutanée passive” value [6] was “inhibition”, the “toxicité pour les cellules” value (cellules) was “atoxique” and the “inhibition de l'activation de macrophages par des réactions (IgE)-(Anti-IgE)” value (macrophages [7]) was “inhibition”. The “libération d'anion superoxyde par les macrophages de rats” value (macrophages de rats) was “inhibée”.
For `CC(=O)N[C@H](C(=O)N[C@@H](CCCCN)C(=O)N1CCC[C@H]1C(=O)O)[C@@H](C)O` [dérivé N-acétylé] (Ac-Thr-Lys-Pro-OH), the “propriétés au terme des mêmes tests” value (macrophages [1]) was “essentiellement les mêmes propriétés”.
With `C[C@@H](O)[C@H](N)C(=O)N[C@@H](CCCCN)C(=O)N1CCC[C@H]1C(N)=O` [dérivé amidé, amide de la thréonyl-lysylproline] (H-Thr-Lys-Pro-NH2) the “propriétés au terme des mêmes tests” value (macrophages [1]) was “essentiellement les mêmes propriétés”.
